Measured values as given in US7868163B2, “Adenyl dinucleotides with antitumour activity and a method of preparing thereof” (Universita' Degli Studi Di Genova, priority 2005, dated 2011).
Like-named read-outs stand apart in the source and are kept apart here.

What was measured:
[1] = test system: HEP-G2; assay: MTT reduction proliferation assay, HEP-G2; type: cell-based, human; settings: HEP-G2 hepatocarcinoma, 24 hours
Experimental: (§1) The effect of P18 and P24 on the proliferation of several cell lines was determined by the MTT reduction assay (Mosmann, T. (1983) J. Immunol. Methods 65, 55-63). […] After 24 hours, 10 μl of a 5 mg/ml solution of MTT were added to each well and the plates incubated for a further 2 hours. The supernatant was then removed from each well and the blue crystals produced by the reduction of the dye were dissolved in DMSO (200 μl/well). The optical absorbance at 570 nm was determined with a BioRad microplate reader.
(§2) In these experiments, cells were seeded onto 96 well plates (3×10^4 cells per well) and incubated in the presence of increasing concentrations of P18 or P24. After 24 hours, the percentage of viable cells was evaluated by spectrophotometric measurement of the concentration of reduced MTT (see Materials and Methods). The means of at least three separate experiments are shown (s.d.≦20% of the mean value). The production of P18 and P24 by human CD38 cyclase, with inhibitory effects on colony growth, together with cADPR, with stimulatory effect, may be at least partly responsible for the colony growth inhibition observed during long term culture of human HP cells on CD38^+ stroma. […]

[2] = test system: CD38^+ HeLa; assay: MTT reduction proliferation assay, CD38+ HeLa; type: cell-based, human; settings: 24 hours
Experimental: as §1, §2

[3] = test system: HeLa-CD38^+ (whole cells); assay: Hydrolysis by CD38+ HeLa whole cells
Experimental: ADP-ribosyl cyclases from lower and higher Metazoa were incubated in the presence of 0.1 mM cADPR and 1 mM adenine at pH 7.4 in 10 mM Tris-HCl (A, B and C) or in PBS-glucose (D) at 22° C. (A and B) or at 37° C. (C and D) for 4 hours. Aliquots of the various incubations were deproteinised with TCA (trichloroacetic acid) and subjected to HPLC (analytical phosphate). Chromatograms representative of each incubation are shown. A. A. polypoides; B. A. californica; C. Human CD38 (recombinant); D. Human HeLa cells transfected with sense and antisense human CD38 (dashed chromatogram).
In table 1, the absolute values of the peak-forming and -hydrolysing activities are compared with the cADPR-forming and -hydrolysing activities for each enzyme. The activities are expressed as nmol/min/mg.

[4] = test system: CD38^− cells; assay: Uptake of extracellularly added dinucleotides in CD38- cells; type: in vitro ADME, human; settings: 15 μM added extracellularly
[5] = test system: CD38^− HeLa; assay: MTT reduction proliferation assay, CD38- HeLa; type: cell-based, human; settings: 24 hours
Experimental: as §1, §2

[6] = Storage stability of purified lyophilised peaks; settings: stored at −20° C., several months (approx. 6)
Experimental: The cyclase purified from A. polypoides was used for the production of the dinucleotides for structural and functional studies. In a total volume of 0.4 ml of 10 mM Tris-HCl, pH 7.0, 0.05 mg of purified cyclase were incubated with 1 mM cADPR (or NAD^+), 5 mM adenine and 2 mM MgCl2 at room temperature. cADPR or NAD^+ was added to the reaction mixture every 6 hours, while every 24 hours fresh cyclase was added and an aliquot of the incubation was deproteinised with TCA (5% final concentration) and analysed by HPLC (analytical phosphate) to monitor dinucleotide production. After 3-5 days, the resulting incubation was extracted with TCA and 250 μl aliquots were injected into an HPLC column (preparative phosphate). The P18, P24 and P31 peaks were collected, lyophilised in a RotoVapor, re-dissolved in deionised water and injected into an HPLC column (preparative formate). […] The purified peaks produced by Axinella cyclase were used in in vitro experiments on the various cell types described hereinafter, for the enzymatic production of mononucleotides and nucleosides (see below), as internal and external HPLC standards to identify the dinucleotides in cell extracts, and for detecting the absorption spectra stored in the liquid chromatograph library as standards.

[7] = test system: HL60; assay: MTT reduction proliferation assay, HL60; type: cell-based, human; settings: HL60 promyelocytic leukemia, 24 hours
Experimental: (§3) The effect of P18 and P24 on the proliferation of several cell lines was determined by the MTT reduction assay (Mosmann, T. (1983) J. Immunol. Methods 65, 55-63). Briefly, cells were seeded at a concentration of 3×10^4/well in flat-bottomed 96-well plates and grown in complete medium in the presence of various concentrations (ranging between 20 and 0.4 μM) of purified dinucleotides. After 24 hours, 10 μl of a 5 mg/ml solution of MTT were added to each well and the plates incubated for a further 2 hours. The supernatant was then removed from each well and the blue crystals produced by the reduction of the dye were dissolved in DMSO (200 μl/well). The optical absorbance at 570 nm was determined with a BioRad microplate reader.
(§4) In these experiments, cells were seeded onto 96 well plates (3×10^4 cells per well) and incubated in the presence of increasing concentrations of P18 or P24. After 24 hours, the percentage of viable cells was evaluated by spectrophotometric measurement of the concentration of reduced MTT (see Materials and Methods). The means of at least three separate experiments are shown (s.d.≦20% of the mean value). […]

[8] = test system: K562; assay: MTT reduction proliferation assay, K562; type: cell-based, human; settings: K562 proerythroblastic leukemia, 24 hours
Experimental: as §3, §4

[9] = test system: HCT-8; assay: MTT reduction proliferation assay, HCT-8; type: cell-based, human; settings: HCT-8 colon carcinoma, 24 hours
Experimental: as §1, §2

hydrolysis activity [3]	SMILES	IC50 [1] [µM]	IC50 [2] [µM]	rate of increase of intracellular concentration (uptake) [4]	IC50 [5] [µM]	degradation on storage [6]	IC50 [7] [µM]	IC50 [8] [µM]	IC50 [9] [µM]	hydrolysis activity ([3]; HeLa-CD38^+ whole cells, P18 and P24 to adenine and ADPR)
0.06^1 nmol/min/mg	Nc1ncn([C@@H]2O[C@H](COP(=O)(O)OP(=O)(O)OC[C@H]3O[C@@H](n4cnc5c(N)ncnc54)[C@H](O)[C@@H]3O)[C@@H](O)[C@H]2O)c2ncnc1-2 [P24]	18.2	9.1	approx. 2.4 pmol/min/mg	9.8	no dinucleotide degradation was observed	2	5.8	27	–
–	Nc1ncnc2c1ncn2[C@@H]1O[C@H](COP(=O)(O)OP(=O)(O)OC[C@H]2O[C@@H](n3cnc4ncnc-4c3N)[C@H](O)[C@@H]2O)[C@@H](O)[C@H]1O [P18]	78	120	approx. 2.4 pmol/min/mg	150	no dinucleotide degradation was observed	26	44	65	0.24^1 nmol/min/mg
